Experimental data published in patent publication US10456407B2, “Combination therapy for treating cancer” (Epizyme, Inc., priority 2015, dated 2019).

Tested on: WSU-DLCL2 cells
Assay: RT2 Glucocorticoid signaling PCR array, WSU-DLCL2 (WSU) cell line (Table 4c)
Type: cell-based

C[C@]12C=CC(=O)C=C1CC[C@@H]1[C@@H]2[C@@H](O)C[C@@]2(C)[C@H]1CC[C@]2(O)C(=O)CO [Prednisolone, prednisolone]
ΔCT (B2M), MERTK (gene MERTK): 13.379 | Ct Values, MT2A (gene MT2A): 24.518 | ΔCT (B2M), MT2A (gene MT2A): 5.373 | ΔΔCT, MT2A (gene MT2A, compared to DMSO): 0.106 | Ct Values, NFKBIA (gene NFKBIA): 22.895 | ΔCT (B2M), NFKBIA (gene NFKBIA): 3.750 | ΔΔCT, NFKBIA (gene NFKBIA, compared to DMSO): 0.829 | Ct Values, NR3C1 (gene NR3C1): 23.110 | ΔCT (B2M), NR3C1 (gene NR3C1): 3.965 | ΔΔCT, NR3C1 (gene NR3C1, compared to DMSO): 0.165 | Ct Values, PDCD7 (gene PDCD7): 23.874 | ΔCT (B2M), PDCD7 (gene PDCD7): 4.729 | ΔΔCT, PDCD7 (gene PDCD7, compared to DMSO): 0.000 | Ct Values, PDP1 (gene PDP1): 24.957 | ΔCT (B2M), PDP1 (gene PDP1): 5.812 | ΔΔCT, PDP1 (gene PDP1, compared to DMSO): −0.109 | Ct Values, PER1 (gene PER1): 24.989 | ΔCT (B2M), PER1 (gene PER1): 5.844 | ΔΔCT, PER1 (gene PER1, compared to DMSO): 0.185 | Ct Values, PER2 (gene PER2): 24.218 | ΔCT (B2M), PER2 (gene PER2): 5.073 | ΔΔCT, PER2 (gene PER2, compared to DMSO): 0.072 | Ct Values, PIK3R1 (gene PIK3R1): 23.429 | ΔCT (B2M), PIK3R1 (gene PIK3R1): 4.284 | ΔΔCT, PIK3R1 (gene PIK3R1, compared to DMSO): 0.000 | Ct Values, PLD1 (gene PLD1): 35.266 | ΔCT (B2M), PLD1 (gene PLD1): 16.121 | Ct Values, PLEKHF1 (gene PLEKHF1): 26.977 | ΔCT (B2M), PLEKHF1 (gene PLEKHF1): 7.832 | ΔΔCT, PLEKHF1 (gene PLEKHF1, compared to DMSO): 0.077 | Ct Values, POU2F1 (gene POU2F1): 24.368 | ΔCT (B2M), POU2F1 (gene POU2F1): 5.223 | ΔΔCT, POU2F1 (gene POU2F1, compared to DMSO): 0.439 | Ct Values, POU2F2 (gene POU2F2): 22.565 | ΔCT (B2M), POU2F2 (gene POU2F2): 3.420 | ΔΔCT, POU2F2 (gene POU2F2, compared to DMSO): −0.753 | Ct Values, RASA3 (gene RASA3): 23.454 | ΔCT (B2M), RASA3 (gene RASA3): 4.309 | ΔΔCT, RASA3 (gene RASA3, compared to DMSO): −0.193 | Ct Values, RGS2 (gene RGS2): 23.962 | ΔCT (B2M), RGS2 (gene RGS2): 4.817 | ΔΔCT, RGS2 (gene RGS2, compared to DMSO): 1.365 | Ct Values, RHO8 (gene RHO8): 28.803 | ΔCT (B2M), RHO8 (gene RHO8): 9.658 | ΔΔCT, RHO8 (gene RHO8, compared to DMSO): −0.616 | Ct Values, RPLP0 (gene RPLP0): 15.330 | ΔCT (B2M), RPLP0 (gene RPLP0): −3.815 | Ct Values, SESN1 (gene SESN1): 25.915 | ΔCT (B2M), SESN1 (gene SESN1): 6.770 | ΔΔCT, SESN1 (gene SESN1, compared to DMSO): −2.469 | Ct Values, SGK1 (gene SGK1): 27.309 | ΔCT (B2M), SGK1 (gene SGK1): 8.164 | ΔΔCT, SGK1 (gene SGK1, compared to DMSO): 2.035 | Ct Values, SLC10A6 (gene SLC10A6): 37.200 | ΔCT (B2M), SLC10A6 (gene SLC10A6): 18.055 | ΔΔCT, SLC10A6 (gene SLC10A6, compared to DMSO): 0.888 | Ct Values, SLC19A2 (gene SLC19A2): 25.887 | ΔCT (B2M), SLC19A2 (gene SLC19A2): 6.742 | ΔΔCT, SLC19A2 (gene SLC19A2, compared to DMSO): −0.446 | Ct Values, SLC22A5 (gene SLC22A5): 29.427 | ΔCT (B2M), SLC22A5 (gene SLC22A5): 10.282 | ΔΔCT, SLC22A5 (gene SLC22A5, compared to DMSO): 0.831 | Ct Values, SNTA1 (gene SNTA1): 24.329 | ΔCT (B2M), SNTA1 (gene SNTA1): 5.184 | ΔΔCT, SNTA1 (gene SNTA1, compared to DMSO): 0.196 | Ct Values, SPHK1 (gene SPHK1): 29.804 | ΔCT (B2M), SPHK1 (gene SPHK1): 10.659 | ΔΔCT, SPHK1 (gene SPHK1, compared to DMSO): 0.466 | Ct Values, SPSB1 (gene SPSB1): 29.963 | ΔCT (B2M), SPSB1 (gene SPSB1): 10.818 | ΔΔCT, SPSB1 (gene SPSB1, compared to DMSO): 0.655 | Ct Values, STAT5A (gene STAT5A): 25.699 | ΔCT (B2M), STAT5A (gene STAT5A): 6.554 | ΔΔCT, STAT5A (gene STAT5A, compared to DMSO): 0.437 | Ct Values, STAT5B (gene STAT5B): 23.270 | ΔCT (B2M), STAT5B (gene STAT5B): 4.125 | ΔΔCT, STAT5B (gene STAT5B, compared to DMSO): 0.161 | Ct Values, TBL1XR1 (gene TBL1XR1): 21.479 | ΔCT (B2M), TBL1XR1 (gene TBL1XR1): 2.334 | ΔΔCT, TBL1XR1 (gene TBL1XR1, compared to DMSO): 0.182 | Ct Values, TNF (gene TNF): 24.151 | ΔCT (B2M), TNF (gene TNF): 5.006 | ΔΔCT, TNF (gene TNF, compared to DMSO): 0.762 | Ct Values, TNFAIP3 (gene TNFAIP3): 26.733 | ΔCT (B2M), TNFAIP3 (gene TNFAIP3): 7.588 | ΔΔCT, TNFAIP3 (gene TNFAIP3, compared to DMSO): 2.092 | Ct Values, TSC22D3 (gene TSC22D3): 22.481 | ΔCT (B2M), TSC22D3 (gene TSC22D3): 3.336 | ΔΔCT, TSC22D3 (gene TSC22D3, compared to DMSO): −2.728 | Ct Values, USP2 (gene USP2): 20.884 | ΔCT (B2M), USP2 (gene USP2): 1.739 | ΔΔCT, USP2 (gene USP2, compared to DMSO): −1.457 | Ct Values, USPS4 (gene USPS4): 26.453 | ΔCT (B2M), USPS4 (gene USPS4): 7.308 | ΔΔCT, USPS4 (gene USPS4, compared to DMSO): 0.209 | Ct Values, VDR (gene VDR): 29.232 | ΔCT (B2M), VDR (gene VDR): 10.087 | ΔΔCT, VDR (gene VDR, compared to DMSO): −0.565 | Ct Values, VLDLR (gene VLDLR): 30.596 | ΔCT (B2M), VLDLR (gene VLDLR): 11.451 | ΔΔCT, VLDLR (gene VLDLR, compared to DMSO): 2.649 | Ct Values, ZFP36 (gene ZFP36): 25.166 | ΔCT (B2M), ZFP36 (gene ZFP36): 6.021 | ΔΔCT, ZFP36 (gene ZFP36, compared to DMSO): 1.104 | Ct Values, ZHX3 (gene ZHX3): 25.570 | ΔCT (B2M), ZHX3 (gene ZHX3): 6.425 | ΔΔCT, ZHX3 (gene ZHX3, compared to DMSO): 0.101 | Ct Values, ZNF281 (gene ZNF281): 23.608 | ΔCT (B2M), ZNF281 (gene ZNF281): 4.463 | ΔΔCT, ZNF281 (gene ZNF281, compared to DMSO): −0.094
